In ChEMBL document CHEMBL1201862, “PubChem BioAssay data set” (2004):
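Tested at 5 concentrations; 48 h exposure; 96-well plates; endpoints linearly interpolated, else capped at highest concentration. GI50 = concentration required for 50% inhibition of growth.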 Active and inactive are the calls of the source. Rule as the data show it: active = GI50 up to about 1.1 µM and inactive = higher.

Experiments:
Assay in all cases: inhibition of tumour cell growth, NCI panel, 48 h
KM-20L2 = test system: KM-20L2
DLD-1 = test system: DLD-1
DMS-114 = test system: DMS-114
SNB-78 = test system: SNB-78
LXFL 529 = test system: LXFL 529
DMS-273 = test system: DMS-273
RXF 631 = test system: RXF 631
HOP-18 = test system: HOP-18
XF498 = test system: XF498

Structure (SMILES) | GI50 (KM-20L2) | GI50 (DLD-1) | GI50 (DMS-114) | GI50 (SNB-78) | GI50 (LXFL 529) | GI50 (DMS-273) | GI50 (RXF 631) | GI50 (HOP-18) | GI50 (XF498)
O=C1OC(c2ccccc2)=N/C1=C/NC(CS)C(=O)O (centres undefined) | > 100 µM (inactive) | > 100 µM (inactive) | > 100 µM (inactive) | > 100 µM (inactive) | > 100 µM (inactive) | > 100 µM (inactive) |  |  | 
CC(C)(C)c1cc(C2c3cc4c(cc3OC(O)(CO)C2C(=O)O)OCO4)cc(C(C)(C)C)c1O.CC(C)(C)c1cc(C2c3cc4c(cc3OC3(O)COC(=O)C23)OCO4)cc(C(C)(C)C)c1O (centres undefined) | 17 µM (inactive) | 11.7 µM (inactive) | 8.34 µM (inactive) |  |  | 14 µM (inactive) | 13.1 µM (inactive) | 7.78 µM (inactive) | 
O=[N+]([O-])c1ccc(/C(Cl)=C/c2ccc(/C=C(\Cl)c3ccc([N+](=O)[O-])cc3[N+](=O)[O-])cc2)c([N+](=O)[O-])c1 | 0.188 µM (active) | > 100 µM (inactive) | > 100 µM (inactive) | > 100 µM (inactive) | > 100 µM (inactive) | > 100 µM (inactive) | > 100 µM (inactive) |  | 
Cc1c(N)c(C#N)c2n(C)c3ncccc3n2c1=O | > 100 µM (inactive) | > 100 µM (inactive) |  | > 100 µM (inactive) | > 100 µM (inactive) | > 100 µM (inactive) |  | > 100 µM (inactive) | > 100 µM (inactive)
Cc1ccccc1NC(=O)c1ccc([N+](=O)[O-])cc1 | > 100 µM (inactive) | > 100 µM (inactive) | 74 µM (inactive) | > 100 µM (inactive) | > 100 µM (inactive) | 80.5 µM (inactive) |  | > 100 µM (inactive) | > 100 µM (inactive)
COc1cc(Nc2nc3cc(C(F)(F)F)ccc3nc2C)cc(OC)c1OC |  | 7.1 µM (inactive) | 11.2 µM (inactive) | 11.1 µM (inactive) | 9.91 µM (inactive) | 5.2 µM (inactive) |  | < 0.01 µM (active) | 2.3 µM (inactive)
CCCCCNC(=O)CCCCCCCCCCCNC(=O)CCCCCCCCCCN1C=CC(=CC=C2C=CC(=O)C=C2)C=C1 | > 100 µM (inactive) | > 100 µM (inactive) | 12.6 µM (inactive) | 15.3 µM (inactive) | 5.86 µM (inactive) | 23.8 µM (inactive) | > 100 µM (inactive) |  | 10.3 µM (inactive)
C/C(=N\NC(N)=S)c1cc(C)c(C)cc1C | 35.6 µM (inactive) | 53.3 µM (inactive) | 21 µM (inactive) | > 100 µM (inactive) | 27.7 µM (inactive) | 19.3 µM (inactive) | 57.7 µM (inactive) | 62.8 µM (inactive) | 23 µM (inactive)
O=C1C(c2ccccc2)=C(O)c2cccc3cccc1c23 | > 100 µM (inactive) |  | > 100 µM (inactive) | > 100 µM (inactive) | > 100 µM (inactive) | > 100 µM (inactive) |  | 33.6 µM (inactive) | > 100 µM (inactive)
O=C(NC1C(=O)NNC1c1ccccc1Cl)c1ccccc1 (centres undefined) | > 100 µM (inactive) | > 100 µM (inactive) | > 100 µM (inactive) |  | > 100 µM (inactive) | > 100 µM (inactive) |  | > 100 µM (inactive) | > 100 µM (inactive)
COC(=O)C1=CC2C(=O)OC1CC2C#N (centres undefined) | > 100 µM (inactive) | > 100 µM (inactive) | > 100 µM (inactive) | > 100 µM (inactive) | > 100 µM (inactive) | > 100 µM (inactive) |  | > 100 µM (inactive) | > 100 µM (inactive)
CCN(CC)CC1CCCCN1CC(=O)N1CC(C)C(=O)Nc2ccccc21 (centres undefined) | > 100 µM (inactive) | > 100 µM (inactive) | > 100 µM (inactive) |  | > 100 µM (inactive) | > 100 µM (inactive) |  | > 100 µM (inactive) | 
COC(=O)c1c(C)cc2c(c1O)C1(O)C(=O)c3cc4c(c(O)c3C(=O)C1(OC)C(O)C2)C(=O)C=C(NC1OC(C)C(OC)C(O)C1OC)C4=O (centres undefined) | 0.104 µM (active) | 0.0199 µM (active) | 0.0104 µM (active) | 0.0521 µM (active) | 0.0679 µM (active) | 0.103 µM (active) |  |  | 0.114 µM (active)
COc1cc(-c2ccccc2)c(OC)cc1CCl | > 100 µM (inactive) | > 100 µM (inactive) | > 100 µM (inactive) | > 100 µM (inactive) |  | > 100 µM (inactive) | > 100 µM (inactive) | > 100 µM (inactive) | > 100 µM (inactive)
COc1ccc(/C=C/C(=O)c2cc(C(=O)O)c(OC)cc2OC)cc1OC | > 100 µM (inactive) | > 100 µM (inactive) | > 100 µM (inactive) | > 100 µM (inactive) | > 100 µM (inactive) | > 100 µM (inactive) |  | > 100 µM (inactive) | 
COC1CC(C)C(OC)c2cc(O)cc(c2O)NC(=O)/C(C)=C/C=C\C(C)C(OC(N)=O)/C(C)=C\C(C)C1OC (centres undefined) | 0.188 µM (active) |  | 0.406 µM (active) | 1.42 µM (inactive) | 0.191 µM (active) | 0.225 µM (active) |  | 0.0925 µM (active) | 
OC(CC1SCCCS1)c1ccccc1 (centres undefined) | > 100 µM (inactive) | > 100 µM (inactive) | > 100 µM (inactive) |  | > 100 µM (inactive) | > 100 µM (inactive) |  | > 100 µM (inactive) | > 100 µM (inactive)
O=c1c2ccccc2c(=O)c2c1c1[nH]c3ccccc3c1c1c(=O)c3ccccc3c(=O)c21 | > 100 µM (inactive) | > 100 µM (inactive) | > 100 µM (inactive) | > 100 µM (inactive) |  | > 100 µM (inactive) | > 100 µM (inactive) | > 100 µM (inactive) | > 100 µM (inactive)
O=C(O)Cc1ccccc1CCc1ccccc1Cl | > 100 µM (inactive) | > 100 µM (inactive) |  | > 100 µM (inactive) | > 100 µM (inactive) | > 100 µM (inactive) |  | 50.1 µM (inactive) | > 100 µM (inactive)
Cc1cc(N(CCC#N)CCC#N)ccc1/C=C(\NC(=O)/C=C/c1ccccc1)C(=O)NN | > 100 µM (inactive) | > 100 µM (inactive) | > 100 µM (inactive) | > 100 µM (inactive) | > 100 µM (inactive) | > 100 µM (inactive) |  |  | 25.6 µM (inactive)
c1cncc(C2c3[nH]c4ccccc4c3CCN2CCCN2CCCCC2)c1 (centres undefined) | > 100 µM (inactive) | > 100 µM (inactive) | > 100 µM (inactive) | > 100 µM (inactive) | 68.7 µM (inactive) | > 100 µM (inactive) |  |  | 57.4 µM (inactive)
O/N=C1/CCCC/C1=C/C=C/c1ccccc1 | 18.5 µM (inactive) | 29.6 µM (inactive) |  | 25.5 µM (inactive) | 26 µM (inactive) |  |  | 25.8 µM (inactive) | 
O=[PH](O)c1cc2ccccc2c2ccccc12 | > 100 µM (inactive) | > 100 µM (inactive) | > 100 µM (inactive) | > 100 µM (inactive) | > 100 µM (inactive) | > 100 µM (inactive) |  | > 100 µM (inactive) | 
C=C1C2CC(OC(C)=O)C3(C)C(c4ccoc4)OC(=O)[C@@H](O)[C@]13OC1C[C@H](OC(C)=O)C(C)(C)[C@H](CC(=O)OC)[C@]12C (some centres undefined) | > 100 µM (inactive) |  | > 100 µM (inactive) | > 100 µM (inactive) | > 100 µM (inactive) | > 100 µM (inactive) | > 100 µM (inactive) | > 100 µM (inactive) | 
N#C/C(=C\c1ccc(O)c(O)c1)C(N)=O | 50.4 µM (inactive) | 48.2 µM (inactive) | 22.7 µM (inactive) | > 100 µM (inactive) | 40.7 µM (inactive) | 57.7 µM (inactive) | 56 µM (inactive) |  | 
C#C[C@]1(O)CC[C@H]2[C@@H]3CCc4cc(O)ccc4[C@H]3CC[C@@]21C [ETHINYL ESTRADIOL] | 16.7 µM (inactive) | 12.6 µM (inactive) | 16.3 µM (inactive) | 33.4 µM (inactive) | 21.5 µM (inactive) | > 10 µM (inactive) |  | > 100 µM (inactive) | 28.7 µM (inactive)
